This passage reports target mRNA inhibition results from the OligoGym collection.

This data set concerns the target SNHG14. The settings on record: ASO.
The mark [1] stands for this setting: Mouse Primary Neuronal Cell, 0.005 µM.

After the bases stand the sugars from the 5' end (letter, count) and the backbone: PS all phosphorothioate, else s phosphorothioate and o phosphodiester by linkage. Methylation of C is not given here. l = locked nucleic acid (LNA); d = 2'-deoxy (DNA)

As to “TTACCTACATCTCATAC (sugars l2 d13 l2, PS)”, the target mRNA inhibition is, setting by setting: (Human Neuronal Cell, 0.2 µM) 1%; (Human Neuronal Cell, 1 µM) -8%; (Human Neuronal Cell, 5 µM) 19%; under setting [1], 79%.
The like results for “TTACCTACATCTCATACT (sugars l2 d12 l4, PS)” were, in that order, -6%, -7%, 16% and 95.6%.
For TTACTCTGCAATACAC (sugars l3 d10 l3, PS), the target mRNA inhibition by setting is: (Human Neuronal Cell, 0.2 µM) 46%; (Human Neuronal Cell, 1 µM) 61%.
Taken in the same sequence, the figures for “TTACTCTGCAATACACC (sugars l2 d11 l4, PS)” were 55% and 57%.
Taken in the same sequence, the figures for TTAGTATACCCTTTAT (sugars l3 d10 l3, PS) were 28% and 20%.
Regarding “TTATACCTTTCTTTAACCCT (sugars ldddddddddddddldldll, PS)”, the target mRNA inhibition (Human Neuronal Cell, 7.5 µM) was 58%.
The same measure, in the same setting: in the case of “TTATACCTTTCTTTAACCCT (sugars ldldddldddddddddddll, PS)” it was 64%; in that of “TTATAGCCATTCTATCT (sugars l1 d11 l2 d1 l2, PS)”, 40%; in that of “TTATAGCCATTCTATCT (sugars l2 d1 l1 d11 l2, PS)”, 62%.
Still for that read-out and setting: under “TTATAGCCATTCTATCT (sugars l2 d1 l2 d10 l2, PS)” stands 64%.
Same read-out and setting: in the case of “TTATAGCCATTCTATCT (sugars l2 d2 l1 d10 l2, PS)” it was 64%; in that of “TTATAGCCATTCTATCT (sugars l3 d1 l1 d10 l2, PS)”, 65%; in that of “TTATAGCCATTCTATCT (sugars ldddlddddddldldll, PS)”, 5%.
As to “TTATAGCCATTCTATCT (sugars ldddlddddddldllll, PS)”, the target mRNA inhibition (Human Neuronal Cell, 7.5 µM) came out at 26%.
The same measure, in the same setting: under “TTATAGCCATTCTATCT (sugars lddllddddddldddll, PS)” stands 50%; under “TTATAGCCATTCTATCT (sugars ldldddddddddlldll, PS)”, 45%; under “TTATAGCCATTCTATCT (sugars ldlddddddddlddlll, PS)”, 57%.
Same read-out and setting: in the case of “TTATAGCCATTCTATCT (sugars llddlddddddlddlll, PS)” it was 39%.
The same measure, in the same setting: in the case of “TTATAGCCATTCTATCT (sugars llddlddddddldldll, PS)” it was 5%.
On to “TTATCATTTCATATTACT (sugars l4 d12 l2, PS)”, for which the target mRNA inhibition runs as follows: (Human Neuronal Cell, 0.2 µM) 16%; (Human Neuronal Cell, 1 µM) 34%.
Taken in the same sequence, the figures for TTATTTATACACCATC (sugars l2 d10 l4, PS) were 78% and 74%.
As to “TTATTTCCATTTATTTTCA (sugars ldlldddddddddlddlll, PS)”, the target mRNA inhibition (Human Neuronal Cell, 7.5 µM) was found to be 68%.
Same read-out and setting: in the case of “TTATTTCCATTTATTTTCA (sugars llddlddddddddldldll, PS)” it was 66%.
Take TTCAACCCTAATCACT (sugars l4 d10 l2, PS): the target mRNA inhibition runs as follows: (Human Neuronal Cell, 0.2 µM) 39%; (Human Neuronal Cell, 1 µM) 50%.
Taken in the same sequence, the figures for “TTCACCAGTATTTCTTC (sugars l4 d11 l2, PS)” were 36% and 32%.
On to “TTCAGCTTTTAACCAGAGT (sugars l2 d14 l3, PS)”, for which the target mRNA inhibition (Human Neuronal Cell, 7.5 µM) is 73%.
Take “TTCCATTTATTTCCATTTAT (sugars ldldddldddddddldddll, PS)”: for the setting “Human Neuronal Cell, 7.5 µM”, the target mRNA inhibition was 56%.
The same measure, in the same setting: in the case of “TTCCATTTATTTCCATTTAT (sugars ldlddlddddddddldldll, PS)” it was 63%; in that of “TTCTACTATACTTTCCTCT (sugars l1 d14 l1 d1 l2, PS)”, 50%.
The same measure, in the same setting: under “TTCTACTATACTTTCCTCT (sugars lddddlddddddddlddll, PS)” stands 57%; under “TTCTACTATACTTTCCTCT (sugars ldddlddddddddddldll, PS)”, 53%; under “TTCTACTATACTTTCCTCT (sugars ldlddddddddddddldll, PS)”, 63%.
On the same count and under the same terms, in the case of “TTCTACTATACTTTCCTCT (sugars ldldddddddddddlddll, PS)” it was 59%; in that of “TTCTGTATACACCATCC (sugars l1 d1 l1 d12 l2, PS)”, 62%; in that of “TTCTGTATACACCATCC (sugars l1 d12 l1 d1 l2, PS)”, 62%.
“TTCTGTATACACCATCC (sugars l1 d14 l2, PS)”: where the note is “Human Neuronal Cell, 7.5 µM”, the target mRNA inhibition was 46%.
The same measure, in the same setting: in the case of “TTCTGTATACACCATCC (sugars l3 d12 l2, PS)” it was 58%.
Still for that read-out and setting: in the case of “TTCTGTATACACCATCC (sugars ldddlddddddddldll, PS)” it was 65%; in that of “TTCTGTATACACCATCC (sugars lddlddddddddlddll, PS)”, 60%.
On the same count and under the same terms, in the case of “TTCTGTATACACCATCCC (sugars l1 d11 l1 d3 l2, PS)” it was 54%; in that of “TTCTGTATACACCATCCC (sugars l1 d15 l2, PS)”, 58%.
For the sequence TTCTTGTTTATCCCAA (sugars l2 d10 l4, PS), the target mRNA inhibition (Human Neuronal Cell, 0.2 µM) came to 67% and the target mRNA inhibition (Human Neuronal Cell, 1 µM) amounted to 71%.
Consider “TTGATTCAATTCCCTTA (sugars l2 d10 l1 d1 l3, PS)”, for which the target mRNA inhibition (Human Neuronal Cell, 7.5 µM) was 68%.
The same measure, in the same setting: under “TTGATTCAATTCCCTTA (sugars l2 d11 l1 d1 l2, PS)” stands 60%.
Still for that read-out and setting: under “TTGATTCAATTCCCTTA (sugars lddlldddddddlldll, PS)” stands 66%.
Turning to “TTGATTCAATTCCCTTA (sugars lldlddddddddlddll, PS)”, for the setting “Human Neuronal Cell, 7.5 µM”, the target mRNA inhibition came to 63%.
On to TTGTCTCTAATCCTAT (sugars l2 d10 l4, PS), for which the target mRNA inhibition by setting is: (Human Neuronal Cell, 0.2 µM) 38%; (Human Neuronal Cell, 1 µM) 54%.
On to “TTTACACTTAATTATACTTC (sugars lldddldddddddlllldll, PS)”, for which, where the note is “Human Neuronal Cell, 7.5 µM”, the target mRNA inhibition turned out to be 51%.
On the same count and under the same terms, in the case of “TTTACACTTAATTATACTTC (sugars lldllddddddddldlllll, PS)” it was 29%; in that of “TTTACACTTAATTATACTTC (sugars lllddldddddddllldlll, PS)”, 22%.
Take “TTTACACTTAATTATACTTC (sugars llldlddddddddlddllll, PS)”: the target mRNA inhibition (Human Neuronal Cell, 7.5 µM) was found to be 55%.
Turning to TTTACATTGACACCTA (sugars l2 d10 l4, PS), the target mRNA inhibition turned out to be 20% (Human Neuronal Cell, 0.2 µM) and 31% (Human Neuronal Cell, 1 µM).
Consider “TTTATACCTTTCTTTAAC (sugars l2 d12 l4, PS)”, for which the target mRNA inhibition came to 4% (Human Neuronal Cell, 0.2 µM) and 21% (Human Neuronal Cell, 1 µM).
For “TTTATCAATATCTTCTCAC (sugars lldldlddddddllddlll, PS)”, the target mRNA inhibition (Human Neuronal Cell, 7.5 µM) was determined as 58%.
Still for that read-out and setting: in the case of “TTTATCAATATCTTCTCAC (sugars lldlllddddddlddddll, PS)” it was 65%.
For “TTTATCAATATCTTCTCACT (sugars lddldldddddddddddlll, PS)”, the target mRNA inhibition (Human Neuronal Cell, 7.5 µM) was found to be 57%.
For TTTATCTCATGACCAC (sugars l2 d10 l4, PS), the target mRNA inhibition was 53% (Human Neuronal Cell, 0.2 µM) and 63% (Human Neuronal Cell, 1 µM).
